According to patent EP2616456B1, “NUCLEAR EXPORT INHIBITORS” (Universitätsmedizin der Johannes Gutenberg-Universität Mainz, priority 2010, dated 2012):
“Also recorded” adds a separate entry of the source.

Experiments:
[1] = tested on: RevNES-biosensor; test: RevNES-biosensor translocation in living FaDu, MDA-MB231 and SW480 cells, fluorescence microscopy; type: cell-based; details: at Topt
Procedure: The activity of compounds C3, C5 and C24 to inhibit NES-mediated nuclear export in living cells was analyzed as described in Fetz et al., 2009 using living HeLa (cervix carcinoma), FaDu (head and neck cancer), MDA-MB231 (mammacarcinoma) and SW480 cells (colon cancer) which transiently expressed the RevNES-biosensor. The RevNES-biosensor is a fusion protein composed of (from N to C terminus) the SV40 large T-antigen nuclear localization signal (NLS), glutathion-S-transferase (GST), green fluorescent protein (GFP) and the nuclear export signal (NES) of the HIV-1 (human immunodeficiency virus) Rev protein (RevNES).
Maximum nuclear localization of fluorescence was observed after 2h (C3) and 5h (C5), respectively. Table 2: Cellular localization of green fluorescent RevNES-biosensor

[2] = tested on: Survivin; test: Nuclear export of Survivin-GFP fusion stably expressed in A431 cells; type: cell-based; details: A431, stable expression, 25µM
Text: Nuclear export of Survivin is crucial for its tumor promoting cytoprotective activity (Engels et al., 2007; Knauer et al., 2007a; Knauer et al., 2007b).

[3] = tested on: HIV-1 Rev protein; test: Nuclear export of HIV-1 Rev-GFP in actinomycin D treated HeLa cells; type: cell-based; details: 25µM
Text: The HIV-1 Rev protein transports unspliced and incompletely spliced viral RNAs from the nucleus into the cytoplasm (Stauber et al., 1995). As such, Rev's export function is crucial for viral replication and AIDS development (Pavlakis and Stauber, 1998; Stauber et al., 1995).

[4] = tested on: RKO; test: Cell viability (CellTiter-Glo) and cell death, RKO; type: cell-based; details: for cell death induced by treatment: RKO (colon cancer), 25µM; for viability compared to the control: RKO, 100µM, 72h, CellTiter-Glo
Procedure: (§1) To test the anti-cancer activity of the compounds, several cancer cell lines, currently used as models for different epithelial cancers and leukemias, were treated with the indicated inhibitors. […] Every 24h, the cell culture medium was replaced by fresh compound-containing medium. 72h post treatment, cell were analyzed by adding 100µl CellTiter-Glo® assay reagent (Promega). Luminescence was measured with a LuminoskanAscent device (ThermoScientific). Cells treated with a corresponding amount of DMSO only were use as a control. The luminescence (equals cell viability) of said control was set to 100%.

[5] = tested on: FaDu; test: Cell viability (CellTiter-Glo) and cell death, FaDu; type: cell-based; details: for cell death induced by treatment: FaDu (head and neck cancer), 25µM; for viability compared to the control: FaDu, 100µM, 72h, CellTiter-Glo
Procedure: as §1

[6] = tested on: SUP-B15; test: Cell death, SUP-B15; type: cell-based; details: SUP-B15 (B cell precursor ALL), 25µM
[7] = tested on: K562; test: AlamarBlue viability assay, K562, alone and combined with imatinib; type: cell-based, human; details: K562, 25µM, 72h, single agent
Procedure: The BCR-ABL^+ human chronic myeloid leukemia (CML) cell line K562 was used to investigate whether combining export inhibitors with chemotherapeutic drugs currently used in the clinics enhances drug-induced cancer cell death.
72h post treatment, cells were analyzed by adding 10µl of AlamarBlue® (Invitrogen). Fluorescence (538/600nm) was measured with a LuminoskanAscent (ThermoScientific). Cells treated with DMSO only were used as a control. The fluorescence measured (equals cell viability) with said control was set to 100%.

[8] = In vivo toxicity in nude mice; details: male NMRI nu/nu mice, i.p. three times every second day, 200µl 1mM
Procedure: To investigate whether the nuclear export inhibitors cause toxic effects in vivo, six-week-old male NMRI nu/nu mice were injected three times intraperitoneally (i.p.) every second day with 200µl 1mM C3 or C5 (5 mice each), or with 200µl DMSO only (control, 2 mice).

[9] = biological target: human CRM1 (Crm1-HA) (Homo sapiens, UniProt O14980); test: In vitro pull-down of Crm1-HA with GST-SurvivinNES-GFP beads; type: binding; details: preincubation 1mM, 30min at 4°C
Procedure: The binding of LMB and of compounds C3 and C5 to CRM1 was examined by in vitro pull-down assays as described by Stauber et al., 2006. Briefly, in vitro coupled transcription/translation was performed using the TNT reticulocyte lysate system (Promega, Madison, WI, USA) supplemented with methionine (Promega, Madison, WI, USA) and plasmid pCrm1_HA (1µg), encoding a hemagglutinin epitope-tagged version of human CRM1 (Crm1-HA), as the template. Equal amounts of the Crm1-HA TNT reaction were preincubated with either DMSO (negative control; 0.1%), LMB (400nM, final concentration), C3 (1 mM; final concentration) or C5 (1mM; final concentration) in binding-buffer containing 5mM MgCl2 (AppliChem, Darmstadt, Germany), 2mM GTP (PEQLAB, Erlangen, Germany), 50mM Hepes pH 7.9 (AppliChem, Darmstadt, Germany), 200mM KCI (AppliChem, Darmstadt, Germany), 0.4% Tween 20 (AppliChem, Darmstadt, Germany), supplemented with complete protease inhibitor cocktail (Roche, Mannheim, Germany) for 30min at 4°C. Subsequently, GST-Sepharose beads loaded with 25µg recombinant GST-SurvivinNES-GFP and 5µg GST-RanQ96L were added to each drug-treated TNT reaction. Recombinant GST-SurvivinNES-GFP and GST-RanQ96L were purified from bacteria as described by Stauber et al., 2006. Pull-down was performed for 4h at 4°C in a rotating wheel. Samples were then centrifuged (3500rpm, 1min, 4°C) to recover the GST-SurvivinNES-GFP beads with bound Crm1-HA. Beads were washed three times with binding-buffer (500µl each washing step, 3500rpm, 1min, 4°C). Finally, bound proteins were eluted by adding 25µl 2xSDS-sample buffer (250mM Tris-HCl pH 6.8; 2% w/v SDS, 20% glycerol, 2% β-mercaptoethanol, 0.002% w/v bromophenol blue) and incubating at 95°C for 2min. Samples were separated by SDS-gelelectrophoresis and analyzed by immunoblot analysis as described by Stauber et al., 2006. Crm1-HA was detected with HA specific antibodies (MMS-101R, Covance, New Jersey, USA). GFP served as the loading control and was visualized with GFP specific antibodies (sc-8334, Santa Cruz Biotechnology, Heidelberg, Germany).

Sequence of human CRM1 (Crm1-HA) (O14980 whole entry): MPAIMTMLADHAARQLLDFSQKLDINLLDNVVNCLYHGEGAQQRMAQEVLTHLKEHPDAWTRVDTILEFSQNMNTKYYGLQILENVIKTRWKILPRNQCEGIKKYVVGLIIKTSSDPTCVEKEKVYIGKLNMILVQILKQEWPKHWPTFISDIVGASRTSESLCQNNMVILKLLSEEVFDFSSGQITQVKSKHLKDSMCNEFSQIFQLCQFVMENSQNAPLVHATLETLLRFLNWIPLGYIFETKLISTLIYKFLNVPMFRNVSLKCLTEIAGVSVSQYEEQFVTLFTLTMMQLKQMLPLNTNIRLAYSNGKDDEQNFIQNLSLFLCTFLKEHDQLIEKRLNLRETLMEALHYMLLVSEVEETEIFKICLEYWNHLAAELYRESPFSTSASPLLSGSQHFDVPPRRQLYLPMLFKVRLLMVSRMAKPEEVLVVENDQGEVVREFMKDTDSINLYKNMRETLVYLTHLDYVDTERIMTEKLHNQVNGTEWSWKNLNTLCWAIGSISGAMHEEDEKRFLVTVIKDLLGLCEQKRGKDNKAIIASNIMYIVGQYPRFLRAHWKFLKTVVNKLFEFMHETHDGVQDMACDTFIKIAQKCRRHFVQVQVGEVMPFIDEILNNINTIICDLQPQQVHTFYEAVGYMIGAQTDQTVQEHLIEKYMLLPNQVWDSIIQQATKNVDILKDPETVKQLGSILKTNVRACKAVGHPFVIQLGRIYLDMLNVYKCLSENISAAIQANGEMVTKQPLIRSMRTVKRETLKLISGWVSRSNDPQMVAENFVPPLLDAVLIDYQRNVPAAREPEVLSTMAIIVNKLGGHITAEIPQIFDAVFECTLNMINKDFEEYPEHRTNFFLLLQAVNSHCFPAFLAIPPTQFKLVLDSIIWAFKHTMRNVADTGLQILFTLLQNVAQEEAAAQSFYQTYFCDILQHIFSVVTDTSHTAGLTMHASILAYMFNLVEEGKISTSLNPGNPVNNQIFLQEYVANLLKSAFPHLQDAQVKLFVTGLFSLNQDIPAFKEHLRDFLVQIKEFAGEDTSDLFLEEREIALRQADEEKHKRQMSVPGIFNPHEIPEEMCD

Row | Structure (SMILES) | Cellular localization of green fluorescent RevNES-biosensor ([1]; FaDu, 25µM) | Cellular localization of green fluorescent RevNES-biosensor ([1]; MDA-MB231, 25µM) | Cellular localization of green fluorescent RevNES-biosensor ([1]; SW480, 25µM) | Localization of Survivin-GFP fusion (nuclear export of Survivin) [2] | Localization of HIV-1 Rev-GFP (nuclear export of HIV-1 Rev protein) [3] | cell death induced by treatment [4] | viability compared to the control [4] | cell death induced by treatment [5] | viability compared to the control [5] | cell death induced by treatment [6] | cancer cell death (AlamarBlue viability) [7] | other signs of in vivo toxicity [8] | weight loss compared to the DMSO control [8] | interaction of Crm1-HA with the export substrate GST-SurvivinNES-GFP [9]
1 | O=C(NC1CS(=O)(=O)CC1Cl)c1cccc(C(F)(F)F)c1 (stereo not drawn) [Compound C5, N-(4-chloro-1,1-dioxothiolan-3-yl)-3-(trifluoromethyl)benzamide] | nuclear accumulation; also recorded: nucleus | nuclear accumulation; also recorded: nucleus | nuclear accumulation; also recorded: nucleus | nuclear accumulation | inhibited; also recorded: restored the nuclear accumulation | cell death | significantly reduced viability | cell death | significantly reduced viability | cell death | caused cancer cell death | no significant weight loss (see Figure 5) or other signs of in vivo toxicity were observed | no significant weight loss | did not affected the CRM1 binding
2 | NC(=O)c1c(NC(NC(=O)c2ccccc2F)(C(F)(F)F)C(F)(F)F)sc2c1CCCC2 [Compound C3, 2-[[1,1,1,3,3,3-hexafluoro-2-[(2-fluorobenzoyl)amino]propan-2-yl]amino]-4,5,6,7-tetrahydro-1-benzothiophene-3-carboxamide] | nuclear accumulation; also recorded: nucleus | nuclear accumulation; also recorded: nucleus | nuclear accumulation; also recorded: nucleus |  | inhibited; also recorded: restored the nuclear accumulation | cell death | significantly reduced viability | cell death | significantly reduced viability | cell death | caused cancer cell death | no significant weight loss (see Figure 5) or other signs of in vivo toxicity were observed | no significant weight loss | did not affected the CRM1 binding
